Results published in US10669273B2, “Use of aza-tryptanthrin derivatives as inhibitors of IDO1 and/or TDO” (Peking University, priority 2016, dated 2020).
Counter-ions that a name gives are not always drawn. Like-named read-outs stand apart in the source and are kept apart here.

Tests used:
IDO-1 = IDO-1 (Homo sapiens (Human), UniProt P14902); assay: Indoleamine-2,3-dioxygenase 1 inhibitory activity (absorbance at 321 nm); format: biochemical
TDO = TDO (Homo sapiens (Human), UniProt P48775); assay: Tryptophan-2,3-dioxygenase inhibitory activity (absorbance at 321 nm); format: biochemical; details: read-out: TDO Inhibition rate
Description: Experimental method: TDO can oxidatively cleave the indole ring of tryptophan to form N-formylkynurenine. Referring to the method in the reference (Eddy W. Yue, et al. J. Med. Chem. 2009, 52, 7364-7367), a detection buffer containing 50 nM TDO, 10μM inhibitor, 200μM tryptophan, and the like were sequentially added thereto at room temperature. Due to the formation of N-formylkynurenine, the reaction rate was recorded by the increasing absorbance of the solution at 321 nm. IC50 values were calculated using Prism GraphPad software.

Lewis lung cancer = Lewis lung cancer in mice, in vivo anti-tumor experiment; design: species or system C57BL/6J mice; details: intraperitoneal 20 mg/Kg, 11 days
melanoma B16 [1] = assay: Melanoma B16 in mice experiment; format: in vivo, C57BL/6J mice; details: intragastric once daily, 10 days; CY-1-26 20 mg/kg, 1-MT 200 mg/kg
Description: The in vivo efficacy of compound was tested with C57BL/6J mice bearing melanoma B16. The intragastric administration was 20 mg/kg, and 1-MT was a positive control (200 mg/kg), which was once daily. The observation and measurement were started on the day of the first administration, and the relevant indicators were recorded. The tumor-bearing mice were sacrificed at the end of the experiment, and the tumor pieces were dissected and weighed.
The tumor-bearing mice were administered by continuous intragastric administration for 10 days. The body weight of the animals in the drug-administered group was slightly slower than that of the negative control group. The animals were in good condition and no obvious side effects were observed.
After 10 days of administration, the animals were euthanized, the subcutaneous tumors were dissected, weighed, and the animals were dissected for gross observation.

T cells = details: cited from earlier work
TNF-α = details: concentration up to 20 μM; cited from earlier work
melanoma B16 [2] = assay: Repeated verification, melanoma B16 in mice experiment; format: in vivo, C57BL/6J mice; details: intragastric 20 mg/kg once daily, 14 days
Description: The in vivo efficacy of compound was tested in three groups (6 in each group) of C57BL/6J mice bearing melanoma B16. CY-1-26 hydrochloride was intragastrically administered at 20 mg/kg (suspended in 0.5% sodium carboxymethyl cellulose solution), and 1-MT was a positive control (200 mg/kg, suspended in 0.5% sodium carboxymethyl cellulose solution), the blank control was 0.5% sodium carboxymethyl cellulose solution, all once daily dose. On the day of the first dose, the relevant indicators were observed, measured and recorded. At the end of the experiment, the tumor-bearing mice were sacrificed and the tumor pieces were dissected and weighed.
The tumor-bearing mice were administered by continuous intragastric administration for 14 days. The body weight of the animals in the drug-administered group was slightly slower than that of the negative control group. The animals were in good condition and no obvious side effects were observed.
After 14 days of administration, the animals were euthanized, the subcutaneous tumors were dissected, weighed, and the animals were dissected for gross observation.

[3] = 20 nM IDO-1, 2 mM D-tryptophan, read-out: IDO-1 inhibitory activity, IC50
[4] = compound at 10 μM, 50 nM TDO, 200 μM tryptophan
[5] = Table 1, comparison with tryptanthrins 5a, 5b, 5c, 5i, read-out: Comparison of inhibitory activity of the IDO1, IC50

Sequence of TDO (P48775 whole entry): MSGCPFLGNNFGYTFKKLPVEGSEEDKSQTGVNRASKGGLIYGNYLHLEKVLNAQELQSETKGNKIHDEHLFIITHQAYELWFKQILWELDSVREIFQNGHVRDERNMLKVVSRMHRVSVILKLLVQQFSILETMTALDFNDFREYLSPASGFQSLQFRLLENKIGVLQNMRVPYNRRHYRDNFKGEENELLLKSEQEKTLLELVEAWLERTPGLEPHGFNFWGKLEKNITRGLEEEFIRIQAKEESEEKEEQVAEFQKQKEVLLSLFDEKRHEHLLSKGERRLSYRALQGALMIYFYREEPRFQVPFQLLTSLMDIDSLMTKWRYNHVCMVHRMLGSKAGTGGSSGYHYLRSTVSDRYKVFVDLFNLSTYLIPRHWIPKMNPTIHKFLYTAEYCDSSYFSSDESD
Sequence of IDO-1 (P14902 whole entry): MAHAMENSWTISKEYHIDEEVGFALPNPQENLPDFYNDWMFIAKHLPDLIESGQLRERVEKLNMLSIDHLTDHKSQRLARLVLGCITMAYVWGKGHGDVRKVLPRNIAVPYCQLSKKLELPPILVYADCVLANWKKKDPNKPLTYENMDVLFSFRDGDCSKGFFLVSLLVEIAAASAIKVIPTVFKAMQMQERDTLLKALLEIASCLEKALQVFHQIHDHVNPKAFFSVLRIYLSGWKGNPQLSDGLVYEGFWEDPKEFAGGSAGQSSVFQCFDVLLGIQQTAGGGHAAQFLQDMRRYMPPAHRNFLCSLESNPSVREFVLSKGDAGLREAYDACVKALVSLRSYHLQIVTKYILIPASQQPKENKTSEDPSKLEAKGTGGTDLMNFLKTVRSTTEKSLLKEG

IC50 (IDO-1; [3]) [nM] | Compound | other results
1100 to 10000 | COc1ccc2c(c1)C(=NO)c1nc3ncccc3c(=O)n1-2 [CY-1-15, 11-(hydroxyimino)-9-methoxypyrido[2′,3′:4,5]pyrimido[1,2-α]indole-5(11H)-one] | –
110 to 1000 | O=c1c2cccnc2nc2n1-c1ccc([N+](=O)[O-])cc1C2=NOCCO [CY-1-21, 11-((2-hydroxyethoxy)imino)-9-nitropyrido[2′,3′:4,5]pyrimido[1,2-α]indol-5(11H)-one] | –
1100 to 10000 | C=CCON=C1c2cc([N+](=O)[O-])ccc2-n2c1nc1ncccc1c2=O [CY-1-27, 11-((allyloxy)imino)-9-nitropyrido[2′,3′:4,5]pyrimido[1,2-α]indol-5(11H)-one] | –
– | O=C1c2cc(F)ccc2-n2c1nc1ncccc1c2=O [CY-1-2, 9-fluoropyrido[2′,3′:4,5]pyrimido[1,2-c]indole-5,11-dione] | inhibition at 10 µM (TDO; [4]): 44%
– | N=C(N)NN=C1c2cc([N+](=O)[O-])ccc2-n2c1nc1ncccc1c2=O [CY-1-23, 2-(9-nitro-5-oxopyrido[2′,3′:4,5]pyrimido[1,2-c]indol-11(5H)-ylidene)hydrazine-1-carboximidamide] | inhibition at 10 µM (TDO): 86%
110 to 1000 | CN(C)CCON=C1c2ccccc2-n2c1nc1ncccc1c2=O [CY-1-16, 11-((2-(dimethylamino)ethoxy)imino)pyrido[2′,3′:4,5]pyrimido[1,2-α]indole-5(11H)-one] | –
110 to 1000 | O=c1c2cccnc2nc2n1-c1ccc([N+](=O)[O-])cc1C2=NOS(=O)(=O)O [CY-1-24, (((9-nitro-5-oxopyrido[2′,3′:4,5]pyrimido[1,2-α]indol-11(5H)-ylidene)amino)oxy) sulfonic acid] | –
110 to 1000 | CON=C1c2cc([N+](=O)[O-])ccc2-n2c1nc1ncccc1c2=O [CY-1-25, 11-(methoxyimino)-9-nitropyrido[2′,3′: 4,5]pyrimido[1,2-α]indol-5 (11H)-one] | –
1100 to 10000 | O=c1c2cccnc2nc2n1-c1ccccc1C2=NO [CY-1-12, 11-(hydroxyimino)pyrido[2′,3′:4,5]pyrimido[1,2-α]indol-5(11H)-one] | –
– | O=P1(N(CCCl)CCCl)NCCCO1 (centres unmarked) [cyclophosphamide, reference compound] | tumor inhibition rate (tumor weight) (Lewis lung cancer): 29.9%
– | O=C1c2cc([N+](=O)[O-])ccc2-n2c1nc1ncccc1c2=O [CY-1-4, 9-nitropyridine[2′,3′:4,5]pyrimido[1,2-c]indole-5,11-dione] | inhibition at 10 µM (TDO): 97%
1100 to 10000 | CCON=C1c2cc([N+](=O)[O-])ccc2-n2c1nc1ncccc1c2=O [CY-1-26, 11-(ethoxyimino)-9-nitropyrido[2′,3′:4,5]pyrimido[1,2-α]indol-5(11H)-one] | tumor inhibition rate (tumor weight) (melanoma B16 [1]): 33.0%
110 to 1000 | O=c1c2cccnc2nc2n1-c1ccc(Cl)cc1C2=NO [CY-1-13, 9-chloro-11-(hydroxyimino)pyrido[2′,3′:4,5]pyrimido[1,2-α]indole-5(11H)-one] | inhibition at 10 µM (TDO; [4]): 6%
1100 to 10000 | CN(C)CCCON=C1c2cc(Cl)ccc2-n2c1nc1ncccc1c2=O [CY-1-20, 9-chloro-11-((3-(dimethylamino)propoxy)imino)pyrido[2′,3′:4,5]pyrimido[1,2-α]indol-5(11H)-one] | –
110 to 1000 | O=C1c2ccccc2-n2c1nc1cnccc1c2=O [CY-1-8, pyrido[3′,4′:4,5]pyrimido[1,2-c]indole-5,11-dione] | IC50 (IDO-1; [5]): 100 to 1000 nM
– | O=C1c2cc(OC(F)(F)F)ccc2-n2c1nc1ncccc1c2=O [CY-1-3, 9-(trifluoromethoxy)pyrido[2′,3′:4,5]pyrimido[1,2-c]indole-5,11-dione] | inhibition at 10 µM (TDO; [4]): 16%

IC50 (IDO-1; [3]) [nM] | Compound | other results
110 to 1000 | CN(C)CCON=C1c2cc(F)ccc2-n2c1nc1ncccc1c2=O [CY-1-19, 11-((2-(dimethylamino)ethoxy)imino)-9-fluoropyrido[2′,3′:4,5]pyrimido[1,2-α]indol-5(11H)-one] | –
– | O=C1c2cc(F)ccc2-n2c1nc1ccccc1c2=O | proliferation of T cells (T cells): can promote the proliferation of T cells
– | O=C1c2cc([N+](=O)[O-])ccc2-n2c1nc1cccnc1c2=O [8-nitro-1-aza-tryptanthrin] | activity in production of TNF-α (TNF-α): did not exhibit activity
– | CN(C)CCON=C1c2cc([N+](=O)[O-])ccc2-n2c1nc1ncccc1c2=O [CY-1-17, 11-((2-(dimethylamino)ethoxy)imino)-9-nitropyrido[2′,3′:4,5]pyrimido[1,2-α]indol-5(11H)-one] | inhibition at 10 µM (TDO; [4]): 64%; tumor inhibition rate (tumor weight) (Lewis lung cancer): 51.8%
– | NC(=S)NN=C1c2cc([N+](=O)[O-])ccc2-n2c1nc1ncccc1c2=O [CY-1-29, 2-(9-nitro-5-oxopyrido[2′,3′:4,5]pyrimido[1,2-c]indol-11(5H)-ylidene)hydrazine-1-carbothioamide] | inhibition at 10 µM (TDO; [4]): 93%
– | CCON=C1c2cc([N+](=O)[O-])ccc2-n2c1nc1ncccc1c2=O [CY-1-26 hydrochloride] | tumor inhibition rate (tumor weight) (melanoma B16 [2]): 46.0%
1100 to 10000 | COc1ccc2c(c1)C(=NNC(=S)N(C)C)c1nc3ncccc3c(=O)n1-2 [CY-1-30, 2-(9-methoxy-5-oxopyrido[2′,3′:4,5]pyrimido[1,2-α]indol-11(5H)-ylidene)-N,N-di methyl-hydrazine-1-carbothioamide] | –
1100 to 10000 | COc1ccc2c(c1)C(=O)c1nc3cnccc3c(=O)n1-2 [CY-1-9, 9-methoxypyrido[3′,4′:4,5]pyrimido[1,2-c]indole-5,11-dione] | –
1100 to 10000 | Cc1ccc2c(c1)C(=NO)c1nc3ncccc3c(=O)n1-2 [CY-1-14, 11-(hydroxyimino)-9-methylpyrido[2′,3′: 4,5]pyrimido[1,2-α]indole-5 (11H)-one] | –
– | O=C1c2cc(Cl)ccc2-n2c1nc1ncccc1c2=O [CY-1-5, 9-chloropyrido[2′,3′:4,5]pyrimido[1,2-c]indole-5,11-dione] | inhibition at 10 µM (TDO; [4]): 35%
– | Cn1cc(CC(N)C(=O)O)c2ccccc21 (centres unmarked) [Compound 1-MT, reference compound] | tumor inhibition rate (tumor weight) (melanoma B16 [1]): 26.3%
110 to 1000 | O=C1c2cc(F)ccc2-n2c1nc1cnccc1c2=O [CY-1-11, 9-fluoropyrido[3′,4′:4,5]pyrimido[1,2-α]indole-5,11-dione] | IC50 (IDO-1; [5]): 100 to 1000 nM
110 to 1000 | Cc1ccc2c(c1)C(=O)c1nc3ncccc3c(=O)n1-2 [CY-1-7, 9-methylpyrido[2′,3′:4,5]pyrimido[1,2-c]indole-5,11-dione] | IC50 (IDO-1; [5]): 100 to 1000 nM
110 to 1000 | CN(C)CCON=C1c2cc(Cl)ccc2-n2c1nc1ncccc1c2=O [CY-1-18, 9-chloro-11-((2-(dimethylamino)ethoxy)imino)pyrido[2′,3′:4,5]pyrimido[1,2-α]indol-5(11H)-one] | –
110 to 1000 | COc1ccc2c(c1)C(=O)c1nc3ncccc3c(=O)n1-2 [CY-1-6, 9-methoxypyrido[2′,3′:4,5]pyrimido[1,2-c]indole-5,11-dione] | –
110 to 1000 | O=C1c2ccccc2-n2c1nc1ncccc1c2=O [CY-1-1, pyrido[2′,3′:4,5]pyrimido[1,2-α]indole-5,11-dione] | IC50 (IDO-1; [5]): 100 to 1000 nM

Compound | IC50 (IDO-1; [3]) [nM] | other results
O=C1c2cc(Cl)ccc2-n2c1nc1cnccc1c2=O [CY-1-10, 9-chloropyrido[3′,4′: 4,5]pyrimido[1,2-α]indole-5,11-dione] | 110 to 1000 | inhibition at 10 µM (TDO): 8%
